# In US4684664A, “Derivatives of β-(4-isocyano-1,2,3,4-diepoxycyclopentyl) acrylic acid” (Kureha Kagaku Kogyo Kabushiki Kaisha, priority 1984, dated 1987):
# Where two headings read alike, the source gives them in different places.
# Legend:
# Format in all cases: cell-based
# [1] = tested on: Candida albicans IAM 4905; assay: Antifungal activity, agar-dilution MIC, organism No. 29; conditions: Candida albicans
# How it was run: (§1)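 Specimen is incorporated into bouillon-agar medium at graded levels and the organisms are tested on these plates. The lowest level preventing growth is taken as the MIC (μg/ml of medium).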
# [2] = tested on: Proteus rettgeri IFO 3850; assay: Antibacterial activity, agar-dilution MIC, organism No. 22; conditions: Providencia rettgeri
# How it was run: as §1
# [3] = tested on: Salmonella paratyphi-A 1015; assay: Antibacterial activity, agar-dilution MIC, organism No. 10; conditions: Salmonella enterica, PARATYPHI, read-out: Minimum Inhibitory Concentration
# How it was run: as §1
# Proteus vulgaris HX-19 = assay: Antibacterial activity, agar-dilution MIC, organism No. 21; conditions: Proteus vulgaris
# How it was run: as §1
# [4] = tested on: Staphylococcus aureus Terajima; assay: Antibacterial activity, agar-dilution MIC, organism No. 2; conditions: Staphylococcus aureus, read-out: Minimum Inhibitory Concentration
# How it was run: as §1
# Enterobacter cloacae 963 = assay: Antibacterial activity, agar-dilution MIC, organism No. 24
# How it was run: as §1
# [5] = tested on: Aspergillus niger IFO 6342; assay: Antifungal activity, agar-dilution MIC, organism No. 30; conditions: Aspergillus niger
# How it was run: as §1
# Proteus vulgaris OX-19 = assay: Antibacterial activity, agar-dilution MIC, organism No. 20; conditions: Proteus vulgaris
# How it was run: as §1
# [6] = tested on: Proteus mirabilis IFO 3849; assay: Antibacterial activity, agar-dilution MIC, organism No. 19; conditions: Proteus mirabilis
# How it was run: as §1
# [7] = tested on: Salmonella shottmuelleri 8006; assay: Antibacterial activity, agar-dilution MIC, organism No. 11
# How it was run: as §1
# [8] = tested on: Streptococcus pyogenes Cook; assay: Antibacterial activity, agar-dilution MIC, organism No. 4; conditions: Streptococcus pyogenes, read-out: Minimum Inhibitory Concentration
# How it was run: as §1
# Salmonella typhi 901 = assay: Antibacterial activity, agar-dilution MIC, organism No. 9; conditions: Salmonella enterica, TYPHI, read-out: Minimum Inhibitory Concentration
# How it was run: as §1
# [9] = tested on: Micrococcus luteus ATCC 9341; assay: Antibacterial activity, agar-dilution MIC, organism No. 25; conditions: Micrococcus luteus
# How it was run: as §1
# [10] = tested on: Pseudomonas aeruginosa IFO 3445; assay: Antibacterial activity, agar-dilution MIC, organism No. 15; conditions: Pseudomonas aeruginosa
# How it was run: as §1
# [11] = tested on: Staphylococcus aureus FDA 209PJc-1; assay: Antibacterial activity, agar-dilution MIC, organism No. 1; conditions: Staphylococcus aureus
# How it was run: as §1
# [12] = tested on: Pseudomonas aeruginosa PAO 1; assay: Antibacterial activity, agar-dilution MIC, organism No. 17; conditions: Pseudomonas aeruginosa
# How it was run: as §1
# [13] = tested on: Staphylococcus aureus MS 353; assay: Antibacterial activity, agar-dilution MIC, organism No. 3; conditions: Staphylococcus aureus
# How it was run: as §1
# [14] = tested on: Bacillus subtilis ATCC 6633; assay: Antibacterial activity, agar-dilution MIC, organism No. 14; conditions: Bacillus subtilis
# How it was run: as §1
# [15] = tested on: Enterobacter aerogenes ATCC 13048; assay: Antibacterial activity, agar-dilution MIC, organism No. 23; conditions: Klebsiella aerogenes
# How it was run: as §1
# [16] = tested on: Pseudomonas aeruginosa NCTC 10490; assay: Antibacterial activity, agar-dilution MIC, organism No. 16; conditions: Pseudomonas aeruginosa
# How it was run: as §1
# [17] = tested on: Salmonella enteritidis G 14; assay: Antibacterial activity, agar-dilution MIC, organism No. 12; conditions: Salmonella enterica, ENTERITIDIS, read-out: Minimum Inhibitory Concentration
# How it was run: as §1
# [18] = tested on: Klebsiella pneumoniae PCI-602; assay: Antibacterial activity, agar-dilution MIC, organism No. 7; conditions: Klebsiella pneumoniae
# How it was run: as §1
# [19] = tested on: Escherichia coli NIHJ-JC-2; assay: Antibacterial activity, agar-dilution MIC, organism No. 5; conditions: Escherichia coli
# How it was run: as §1
# [20] = tested on: Escherichia coli K12 C600 IAM 1264; assay: Antibacterial activity, agar-dilution MIC, organism No. 6; conditions: Escherichia coli
# How it was run: as §1
# [21] = tested on: Salmonella typhimurium IID 971; assay: Antibacterial activity, agar-dilution MIC, organism No. 8; conditions: Salmonella enterica, read-out: Minimum Inhibitory Concentration
# How it was run: as §1
# [22] = tested on: Proteus morganii IFO 3848; assay: Antibacterial activity, agar-dilution MIC, organism No. 18; conditions: Morganella morganii
# How it was run: as §1
# [23] = tested on: Serratia marcescens IAM 1184; assay: Antibacterial activity, agar-dilution MIC, organism No. 13; conditions: Serratia marcescens, IAM1184, read-out: Minimum Inhibitory Concentration
# Text: Agar-dilution method was used for determination of the antibacterial activity and antifungal activity while using bouillon-agar culture medium, and the minimum inhibitory concentration of the specimen was expressed by μg/ml of the culture medium.
# [24] = tested on: Streptococcus faecium IFO 3826; assay: Antibacterial activity, agar-dilution MIC, organism No. 27; conditions: Enterococcus faecium, IFO3826; Organism No. 27, bouillon-agar; read-out: Minimum Inhibitory Concentration
# How it was run: as §1
# [25] = tested on: Mycoplasma pneumoniae IID817; assay: Antimycoplasmal activity, MIC by phenol red colour change, organism No. 28; conditions: Mycoplasma, IID817; Organism No. 28, PPLO broth + 1% glucose, 37° C.; read-out: Minimum Inhibitory Concentration (MIC)
# Experimental: Mycoplasma pneumoniae IID817 was used as the test microorganism in a culture medium prepared by adding 1% of glucose to "PPLO broth (manufactured by Difco Co.) liquid culture medium" at 37° C. with phenol red as an indicator, thereby culturing the test microorganism.
# [26] = tested on: Streptococcus pyogenes IFO 3340; assay: Antibacterial activity, agar-dilution MIC, organism No. 26; conditions: Streptococcus pyogenes, IFO3340; Organism No. 26, bouillon-agar; read-out: Minimum Inhibitory Concentration
# How it was run: as §1
# [27] = IAM4905, Organism No. 29, bouillon-agar, read-out: Minimum Inhibitory Concentration
# [28] = IFO3850, Organism No. 22, bouillon-agar, read-out: Minimum Inhibitory Concentration
# [29] = HX19, Organism No. 21, bouillon-agar, read-out: Minimum Inhibitory Concentration
# [30] = Enterobacter cloacae, 963, Organism No. 24, bouillon-agar, read-out: Minimum Inhibitory Concentration
# [31] = IFO6342, Organism No. 30, bouillon-agar, read-out: Minimum Inhibitory Concentration
# [32] = OX19, Organism No. 20, bouillon-agar, read-out: Minimum Inhibitory Concentration
# [33] = IFO3849, Organism No. 19, bouillon-agar, read-out: Minimum Inhibitory Concentration
# [34] = Salmonella, 8006, Organism No. 11, bouillon-agar, read-out: Minimum Inhibitory Concentration
# [35] = ATCC9341, Organism No. 25, bouillon-agar, read-out: Minimum Inhibitory Concentration
# [36] = IFO3445, Organism No. 15, bouillon-agar, read-out: Minimum Inhibitory Concentration
# [37] = FDA209PJC1, Organism No. 1, bouillon-agar, read-out: Minimum Inhibitory Concentration
# [38] = PAO1, Organism No. 17, bouillon-agar, read-out: Minimum Inhibitory Concentration
# [39] = MS353, Organism No. 3, bouillon-agar, read-out: Minimum Inhibitory Concentration
# [40] = ATCC6633, Organism No. 14, bouillon-agar, read-out: Minimum Inhibitory Concentration
# [41] = ATCC13048, Organism No. 23, bouillon-agar, read-out: Minimum Inhibitory Concentration
# [42] = NCTC10490, Organism No. 16, bouillon-agar, read-out: Minimum Inhibitory Concentration
# [43] = PCI602, Organism No. 7, bouillon-agar, read-out: Minimum Inhibitory Concentration
# [44] = NIHJJC2, Organism No. 5, bouillon-agar, read-out: Minimum Inhibitory Concentration
# [45] = IAM1264, Organism No. 6, bouillon-agar, read-out: Minimum Inhibitory Concentration
# [46] = IFO3848, Organism No. 18, bouillon-agar, read-out: Minimum Inhibitory Concentration
structure (smiles),measurement,setting,value
[C-]#[N+]C12CC3(/C=C/C(=O)Nc4ccncc4)OC3C1O2 (stereo not shown) [compound 72],MIC,"[1]; IAM4905, read-out: Minimum Inhibitory Concentration",6.25 µg/mL
same,MIC,"[2]; IFO3850, read-out: Minimum Inhibitory Concentration",200 µg/mL
same,MIC,[3],3.13 µg/mL
same,MIC,"Proteus vulgaris HX-19; HX19, read-out: Minimum Inhibitory Concentration",6.25 µg/mL
same,MIC,[4],6.25 µg/mL
same,MIC,"Enterobacter cloacae 963; Enterobacter cloacae, 963, read-out: Minimum Inhibitory Concentration",200 µg/mL
same,MIC,"[5]; IFO6342, read-out: Minimum Inhibitory Concentration",6.25 µg/mL
same,MIC,"Proteus vulgaris OX-19; OX19, read-out: Minimum Inhibitory Concentration",6.25 µg/mL
same,MIC,"[6]; IFO3849, read-out: Minimum Inhibitory Concentration",> 200 µg/mL
same,MIC,"[7]; Salmonella, 8006, read-out: Minimum Inhibitory Concentration",6.25 µg/mL
same,MIC,[8],12.5 µg/mL
same,MIC,Salmonella typhi 901,12.5 µg/mL
same,MIC,"[9]; ATCC9341, read-out: Minimum Inhibitory Concentration",50 µg/mL
same,MIC,"[10]; IFO3445, read-out: Minimum Inhibitory Concentration",> 200 µg/mL
same,MIC,"[11]; FDA209PJC1, read-out: Minimum Inhibitory Concentration",1.56 µg/mL
same,MIC,"[12]; PAO1, read-out: Minimum Inhibitory Concentration",> 200 µg/mL
same,MIC,"[13]; MS353, read-out: Minimum Inhibitory Concentration",3.13 µg/mL
same,MIC,"[14]; ATCC6633, read-out: Minimum Inhibitory Concentration",12.5 µg/mL
same,MIC,"[15]; ATCC13048, read-out: Minimum Inhibitory Concentration",> 200 µg/mL
same,MIC,"[16]; NCTC10490, read-out: Minimum Inhibitory Concentration",> 200 µg/mL
same,MIC,[17],12.5 µg/mL
same,MIC,"[18]; PCI602, read-out: Minimum Inhibitory Concentration",3.13 µg/mL
same,MIC,"[19]; NIHJJC2, read-out: Minimum Inhibitory Concentration",50 µg/mL
same,MIC,"[20]; IAM1264, read-out: Minimum Inhibitory Concentration",50 µg/mL
same,MIC,[21],25 µg/mL
same,MIC,"[22]; IFO3848, read-out: Minimum Inhibitory Concentration",6.25 µg/mL
same,MIC,[23],100 µg/mL
[C-]#[N+]C12CC3(/C=C/C(=O)Nc4ccc(C)cc4)OC3C1O2 (stereo not shown) [compound 37],MIC,[1]; [27],0.39 µg/mL
same,MIC,[2]; [28],3.13 µg/mL
same,MIC,[24],25 µg/mL
same,MIC,[3],0.2 µg/mL
same,MIC,Proteus vulgaris HX-19; [29],< 0.05 µg/mL
same,MIC,"[4]; Organism No. 2, bouillon-agar",1.56 µg/mL
same,MIC,Enterobacter cloacae 963; [30],50 µg/mL
same,MIC,[5]; [31],1.56 µg/mL
same,MIC,Proteus vulgaris OX-19; [32],0.2 µg/mL
same,MIC,[6]; [33],200 µg/mL
same,MIC,[7]; [34],0.2 µg/mL
same,MIC,"[8]; Organism No. 4, bouillon-agar",12.5 µg/mL
same,MIC,Salmonella typhi 901,1.56 µg/mL
same,MIC,[9]; [35],< 0.05 µg/mL
same,MIC,[10]; [36],> 200 µg/mL
same,MIC,[11]; [37],0.39 µg/mL
same,MIC,[12]; [38],> 200 µg/mL
same,MIC,[13]; [39],0.39 µg/mL
same,MIC,[14]; [40],6.25 µg/mL
same,MIC,[15]; [41],100 µg/mL
same,MIC,[16]; [42],> 200 µg/mL
same,MIC,"[17]; Organism No. 12, bouillon-agar",1.56 µg/mL
same,MIC,[18]; [43],0.1 µg/mL
same,MIC,[19]; [44],25 µg/mL
same,MIC,[25],0.2 µg/mL
same,MIC,[20]; [45],25 µg/mL
same,MIC,"[21]; Organism No. 8, bouillon-agar",6.25 µg/mL
same,MIC,[22]; [46],12.5 µg/mL
same,MIC,[26],1.56 µg/mL
[C-]#[N+]C12CC3(/C=C/C(=O)N[C@@H](C(=O)OCc4ccccc4)C(C)C)OC3C1O2 (stereo partly shown) [compound 30],MIC,[1]; [27],> 100 µg/mL
same,MIC,[2]; [28],> 200 µg/mL
same,MIC,[24],> 200 µg/mL
same,MIC,[3],> 200 µg/mL
same,MIC,Proteus vulgaris HX-19; [29],> 200 µg/mL
same,MIC,"[4]; Organism No. 2, bouillon-agar",> 200 µg/mL
same,MIC,Enterobacter cloacae 963; [30],> 200 µg/mL
same,MIC,[5]; [31],> 100 µg/mL
same,MIC,Proteus vulgaris OX-19; [32],> 200 µg/mL
same,MIC,[6]; [33],> 200 µg/mL
same,MIC,[7]; [34],> 200 µg/mL
same,MIC,"[8]; Organism No. 4, bouillon-agar",> 200 µg/mL
same,MIC,Salmonella typhi 901,> 200 µg/mL
same,MIC,[9]; [35],1.56 µg/mL
same,MIC,[10]; [36],> 200 µg/mL
same,MIC,[11]; [37],> 200 µg/mL
same,MIC,[12]; [38],> 200 µg/mL
same,MIC,[13]; [39],> 200 µg/mL
same,MIC,[14]; [40],> 200 µg/mL
same,MIC,[15]; [41],> 200 µg/mL
same,MIC,[16]; [42],> 200 µg/mL
same,MIC,"[17]; Organism No. 12, bouillon-agar",> 200 µg/mL
same,MIC,[18]; [43],> 200 µg/mL
same,MIC,[19]; [44],> 200 µg/mL
same,MIC,[25],> 100 µg/mL
same,MIC,[20]; [45],> 200 µg/mL
same,MIC,"[21]; Organism No. 8, bouillon-agar",> 200 µg/mL
same,MIC,[22]; [46],> 200 µg/mL
same,MIC,[26],> 200 µg/mL
